Test results: patent US6525042B1 (Daiichi Pharmaceutical Co., Ltd., priority 1997, dated 2003)
Blank lines part the entries; values can stand above or below the molecule they belong to.

Tests used:
human FXa [1] = biological target: T1, human FXa (Homo sapiens, UniProt P00742); experiment: FXa inhibitory action (IC50), end point method; format: biochemical; conditions: 37° C. for 15 minutes, read-out: FXa 50% inhibitory concentration
T1 construct: purchased Cosmobio-ERL HFXa-1011
Description: (§1) Measurement of FXa Inhibitory Action (IC50)
A sample solution (100 μl), 280 μl of a 100 mM tris −200 mM sodium chloride (pH 7.4) buffer and 100 μl of a 1 mM S2222 (Chromogenix Corp.) solution were mixed and heated at 37° C. To the resulting mixture, 20 μl of 0.625 U/ml human FXa (“Cosmobio-ERL HFXa-1011”, dissolved in and diluted with a measuring buffer) were added, followed by heating at 37° C. for 15 minutes. To the resulting mixture, 100 μl of 1M citric acid were added and then, the absorbance at 405 nm was measured. The mixture to which only the diluting solvent for the sample was added instead of the sample was used as a blank, while the mixture to which 1M citric acid was added prior to the addition of FXa was used as a control. The concentration of the sample (IC50) at which 50% of FXa activity was inhibited was determined and it was designated as an index of FXa inhibitory action.

human thrombin [2] = biological target: T2, human thrombin (Homo sapiens, UniProt P00734); experiment: Thrombin inhibitory action (IC50), reaction rate method; format: biochemical; conditions: room temperature, read-out: thrombin 50% inhibitory concentration
T2 construct: purchased Sigma Chemical
Description: (§2) Measurement of Thrombin Inhibitory Action (IC50)
In a 96-well microtiter plate, 10 μl of a sample solution, 40 μl of a 100 mM tris −200 mM sodium chloride −0.2% BSA (pH: 7.4) buffer and 10 μl of 4 U/ml human thrombin (Sigma Chemical, dissolved in and diluted with a measuring buffer) were poured, followed by the addition of 40 μl of 500 μM S2266 (product of Chromogenix). An increase (mOD/min) in the absorbance at 405 nm was measured at room temperature. From the below-described equation, an inhibitory ratio % of each sample was determined. On a logarithmic probability paper, the final concentration of the sample and inhibitory ratio were plotted along the abscissa and the ordinate, respectively, whereby a 50% inhibitory concentration (IC50) was found.
(§3) Inhibitory ratio (%)=(1−OD of sample÷OD of control)×100

human FXa [3] = biological target: T1, human FXa; experiment: Measurement of Ki value against FXa; format: biochemical; conditions: substrate S2222, Dixon plot
Description: Measurement of Ki Value Against FXa
In a 96-well microtiter plate, 5 μl of a sample solution, 5 μl of purified water, 40 μl of a 100 mM tris −200 mM sodium chloride −0.2% BSA (pH: 7.4) buffer and 10 μl of 0.05 U/ml human FXa (product of Enzyme Research, dissolved in and diluted with a measuring buffer) were poured, followed by the addition of 40 μl of S2222 (product of Chromogenix, final concentration: 75, 150, 300 and 600 μM). […] The median of six values available by solving simultaneous equations was designated as a Ki value.

human thrombin [4] = biological target: T2, human thrombin; experiment: Measurement of Ki value against thrombin; format: biochemical; conditions: Dixon plot
Description: Measurement of Ki Value Against Thrombin
In a 96-well microtiter plate, 5 μl of a sample solution, 5 μl of purified water, 40 μl of a 100 mM tris −200 mM sodium chloride −0.2% BSA (pH: 7.4) buffer and 10 μl of 5 U/ml human thrombin (product of Sigma Chemical, dissolved in and diluted with a measuring buffer) were poured in portions, followed by the addition of 40 μl of S2226 (product of Chromogenix, final concentration: 50, 100, 200 and 400 μM). […] The median of six values available by solving simultaneous equations was designated as a Ki value.

human FXa [5] = biological target: T1, human FXa; experiment: FXa inhibitory action (IC50), reaction rate method; format: biochemical; conditions: room temperature, read-out: FXa 50% inhibitory concentration
Description: as §1
In a 96-well microtiter plate, 10 μl of a sample solution, 40 μl of a 100 mM tris −200 mM sodium chloride −0.2% BSA (pH: 7.4) buffer and 10 μl of 0.05 U/ml human FXa (“Cosmobio-ERL HFXa-1011”, dissolved in and diluted with a measuring buffer) were poured in portions, followed by the addition of […] of S2222 (product of Chromogenix). An increase (mOD/min) in the absorbance at 405 nm was measured at room temperature. From the below-described equation, an inhibitory ratio % of each sample was determined. On a logarithmic probability paper, the final concentration of the sample and inhibitory ratio % were plotted along the abscissa and the ordinate, respectively, whereby a 50% inhibitory concentration (IC50) was determined.
as §3

human thrombin [6] = biological target: T2, human thrombin; experiment: Thrombin inhibitory action (IC50), end point method; format: biochemical; conditions: 37° C. for 10 minutes, read-out: thrombin 50% inhibitory concentration
Description: as §2
A sample solution (100 μl), 280 μl of a 100 mM tris −200 mM sodium chloride (pH 7.4) buffer and 100 μl of 1 mM S2238 (Chromogenix) solution were mixed and heated at 37° C. To the resulting mixture, 20 μl of 1 U/ml human thrombin (Sigma Chemical, dissolved in and diluted with a measuring buffer) were added, followed by heating at 37° C. for 10 minutes. To the resulting mixture, 100 μl of 1M citric acid were added and then, the absorbance at 405 nm was measured. The mixture to which only the diluting solvent was added instead of the sample was used as a blank, while the mixture to which 1M citric acid was added prior to the addition of thrombin was used as a control. The sample concentration (IC50) at which 50% of thrombin activity was inhibited was found and it was designated as an index of thrombin inhibitory action.

Plasma [7] = experiment: Coagulation extending action (prothrombin time) in plasma; format: biochemical
Description: Measurement of Coagulation Extending Action (Measurement of Prothrombin Time)
Plasma (20 μl) and 20 μl of a sample solution were mixed. To the resulting mixture, […] of cynplastin (product of Organon Teknika) were added and the coagulation time was measured. The concentration of the sample (CT2) at which the coagulation time of the plasma was increased twice was found and it was designated as an index of anticoagulant action.

[8] = tested on: tissue thromboplastin-derived rat DIC model; experiment: Anti-thrombus effects in a tissue thromboplastin-derived rat DIC model; format: in vivo; conditions: oral 30 mg/kg, tissue thromboplastin one hour after the sample
Description: Testing Method of Anti-thrombus Effects in a Tissue Thromboplastin-derived Rat DIC Model
A rat was anesthetized with halothane. After the collection of the blood (for measurement of the number of platelets, anti-FXa activity and TAT) from its cervical vein by using 1/10 part by weight of 3.13% (w/v) sodium citrate, the sample was administered orally. At an appropriate time after the administration, the rat was intraperioneally anesthetized (1 mg/kg) with Nembutal (50 mg/ml pentobarbital sodium, Abott Laboratories), followed by intravenous drip of 0.2 U/ml of tissue thromboplastin (Thromboplastin C plus, Dade Diagnostics of P. R. Inc.,) from the femoral vein for one minute at a rate of 2.5 to 3.0 ml/kg/min. The blood was collected (for measuring the number of platelets and anti-FXa activity) from the cervical vein 10 minutes after the intravenous drip and the blood was collected (for measuring TAT) from the cervical vein 20 minutes after the blood collection. The number of platelets, anti-FXa activity in the plasma and TAT concentration of each blood sample were measured. The number of the platelets was measured by an automatic cytometer, while the anti-FXa activity in the plasma was measured in a similar manner to that described in Test 7.
For the measurement of TAT (Thrombin-anti Thrombin=complex), EnzygnostR TAT micro kit (Boering Verke) was employed.

human Factor Xa = human Factor Xa (Homo sapiens, UniProt P00742); experiment: Oral administration test: anti-FXa activity in the plasma; format: in vivo; conditions: rat, 30 mg/kg, one hour after the administration
human Factor Xa, sequence (P00742 235-488 limits assumed): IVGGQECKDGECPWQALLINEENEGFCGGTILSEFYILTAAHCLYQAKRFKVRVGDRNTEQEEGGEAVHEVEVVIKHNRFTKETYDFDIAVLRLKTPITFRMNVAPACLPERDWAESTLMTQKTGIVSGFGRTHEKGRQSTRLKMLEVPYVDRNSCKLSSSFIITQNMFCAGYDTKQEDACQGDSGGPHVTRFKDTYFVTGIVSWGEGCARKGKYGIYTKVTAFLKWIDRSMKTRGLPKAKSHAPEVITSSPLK
human Factor Xa, sequence (P00742 41-179 partner limits assumed): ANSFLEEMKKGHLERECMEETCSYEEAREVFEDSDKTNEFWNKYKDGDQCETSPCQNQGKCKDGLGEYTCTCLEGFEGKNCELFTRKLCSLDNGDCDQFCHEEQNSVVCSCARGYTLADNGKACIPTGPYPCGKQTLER
Description: (§4) Test of Oral Administration
(§5) A sample was dissolved or suspended in a 0.5% (w/v) methyl cellulose solution and the resulting solution or suspension was orally administered (10 ml/kg) to a 8 to 11 week-old rat (Wistar male rat (Nippon SLC Co., Ltd.)) which had been fasted overnight. After administration of the sample, the blood to which 1/10 part by weight of 3.13% (w/v) sodium citrate had been added was collected from the cervical vein. The rat was awakened except during the blood collection. Feeding was re-started 6 hours after the blood collection. From each blood sample, the plasma was separated by centrifugal separation and anti-FXa activity in the blood and prothrombin time extending action were measured.
2-1) Measurement of Anti-FXa Activity in the Plasma
In a 96-well plate, 5 μl of the plasma was poured in portions, followed by the addition of 55 μl of a 8:1:2 mixture of 100 mM tris −200 mM sodium chloride −0.2% BSA (pH 7.4) buffer, water and 0.1 U/ml human Factor Xa solution (dissolved in and diluted with a measuring buffer) and 40 μl of 750 μM S-2222. After stirring for 10 seconds in a plate mixer, an increase (mOD/min) of the absorbance at 405 nm was measured at room temperature. The inhibitory ratio was calculated as follows:
An inhibitory ratio (%)=(1−OD of sample÷OD of control on average relative to blood-collecting time of sample)×100

plasma [9] = experiment: Oral administration test: coagulation extending action (prothrombin time); format: in vivo; conditions: rat, 30 mg/kg, one hour after the administration
Description: as §4, §5
2-2) Measurement of Coagulation Extending Action in Oral Administration (Measurement of Prothrombin Time)
To 20 μl of the plasma, 40 μl of cynplastin (Organon Teknika/USA) were added and the coagulation time was measured. The ratio of the prothrombin time after the administration of the sample relative to the prothrombin time before the administration of the sample was designated as an index of the coagulation extending action.

T1 sequence (P00742 235-488 limits assumed): as the sequence (P00742 235-488 limits assumed) above
T1 sequence (P00742 41-179 partner limits assumed): as the sequence (P00742 41-179 partner limits assumed) above

Molecule: 2-[[4-[(6-Chloronaphthalen-2-yl)sulfonyl]piperazin-1-yl]carbonyl]-6,6-dimethyl-4,5,6,7-tetrahydrothiazolo[5,4-c]pyridinium iodide [Example 92]
IC50 (human FXa [5]): 7.8 nM
IC50 (human thrombin [6]): ≥ 200000 nM
CT2 (concentration at which the coagulation time of the plasma was increased twice) (Plasma [7]): 0.35 µM

Molecule: CC1Cc2nc(C(=O)N3CCN(S(=O)(=O)c4ccc5cc(Cl)ccc5c4)CC3C(N)=O)sc2CN1.Cl (stereo not shown) [Example 95, 2-Carbamoyl-4-[(6-chloronaphthalen-2-yl)sulfonyl]-1-[(6-methyl-4,5,6,7-tetrahydrothiazolo[5,4-c]pyridin-2-yl)carbonyl]piperazine hydrochloride]
anti-FXa action in the plasma [8]: apparent anti-FXa action in the plasma was recognized
decrease in the number of the platelets [8]: suppressed
increase in the TAT concentration [8]: suppressed

Second part, led by results:

IC50 (human FXa [1]): 72 nM
IC50 (human thrombin [2]): 1900 nM
Molecule: O=C(c1ccc(-c2cccc[n+]2[O-])cc1)N1CCN(S(=O)(=O)c2ccc3cc(Cl)ccc3c2)CC1 [Example 19, 2-[4-[[4-[(6-Chloronaphthalen-2-yl)sulfonyl]piperazin-1-yl]carbonyl]phenyl]pyridine N-oxide]

Ki (human FXa [3]): 10.9 nM
Ki (human thrombin [4]): 3300 nM
Molecule: C[N+]1([O-])CCc2nc(C(=O)N3CCN(S(=O)(=O)c4ccc5cc(Cl)ccc5c4)CC3)sc2C1 (stereo not shown) [Example 93]

IC50 (human FXa [1]): 125 nM
Molecule: O=C(c1ccc(-c2cc[n+]([O-])cc2)cc1)N1CCN(S(=O)(=O)c2ccc3cc(Cl)ccc3c2)CC1 [Example 6, 4-[4-[[4-[(6-Chloronaphthalen-2-yl)sulfonyl]piperazin-1-yl]carbonyl]phenyl]pyridine N-oxide]

anti-FXa activity in the plasma (human Factor Xa): 70%
Molecule: Cl.O=C(C1CC=C(c2ccncc2)CC1)N1CCN(S(=O)(=O)c2ccc3cc(Cl)ccc3c2)CC1 (racemic) [Example 110, 1-[(6-Chloronaphthalen-2-yl)sulfonyl]-4-[[(1RS)-4-(pyridin-4-yl)-3-cyclohexene]carbonyl]piperazine hydrochloride]
extension of the prothrombin time (ratio after/before administration) (plasma [9]): 1.18 times
